For 25 molecules, IC50 results are on record in patent US20250186391A1, “ORAL COMPLEMENT FACTOR D INHIBITORS” (BioCryst Pharmaceuticals, Inc., priority 2019, published 2025).

Structures are written as SMILES. A value given as a limit tells only on which side of the number the result lay.

Factor D, sequence (P00746 26-253): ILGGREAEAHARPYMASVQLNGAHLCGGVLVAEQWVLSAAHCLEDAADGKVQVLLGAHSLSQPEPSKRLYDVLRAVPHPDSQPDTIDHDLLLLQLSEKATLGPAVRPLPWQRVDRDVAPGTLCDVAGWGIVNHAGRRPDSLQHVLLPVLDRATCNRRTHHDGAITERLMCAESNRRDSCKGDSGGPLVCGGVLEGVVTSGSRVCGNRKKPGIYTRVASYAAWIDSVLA

The target of this test is Factor D (Homo sapiens (Human), UniProt P00746). As to the kind of experiment: Factor D esterolytic assay. Type of test: biochemical. The following applies: Z-Lys-SBzl substrate, 100 mM HEPES, 500 mM NaCl, pH 7.5, 10% DMSO; tested a minimum of three times; read-out: Measured Ki (IC50) Value for Compounds: IC50. An outline of the steps:
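Chromogenic thioesterase read-out: Z-Lys-SBzl (1.29 mM) hydrolysis by human Factor D, thiol detected with DTNB at 405 nm (690 nm background subtracted) for 600 s. Run in 100 mM HEPES, 500 mM NaCl, pH 7.5, 10% DMSO, substrate added immediately or after room-temperature preincubation. IC50 from percent inhibition versus enzyme alone, n≥3.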
The IC50 is the concentration at which inhibition is half-maximal. As to `NCc1cccc(-c2ccc3occ(COc4cc(CN)ccc4CC(=O)O)c3c2)c1` [Compound 156c, 2-(4-(aminomethyl)-2-((5-(3-(aminomethyl)phenyl)benzofuran-3-yl)methoxy)phenyl)acetic acid], the IC50 was under 1000 nM. With `NCc1cccc(-c2cc(CC3CCOCC3)c3occ(COc4ccccc4CC(=O)O)c3c2)c1` [Compound 163e, 2-(2-((5-(3-(aminomethyl)phenyl)-7-((tetrahydro-2H-pyran-4-yl)methyl)benzofuran-3-yl)methoxy)phenyl)acetic acid], the IC50 was under 1000 nM. For `NCc1cccc(-c2cc(OCCN3CCOCC3)c3occ(COc4ccccc4CC(=O)O)c3c2)c1` [Compound 250f, 2-(2-((5-(3-(aminomethyl)phenyl)-7-(2-morpholinoethoxy)benzofuran-3-yl)methoxy)phenyl)acetic acid] the value was under 1000 nM. The value for `NCc1cccc(-c2cc(CN3CCC[C@H]3C(F)(F)F)c3occ(COc4ccccc4CC(=O)O)c3c2)c1` [Compound 178f, (S)-2-(2-((5-(3-(aminomethyl)phenyl)-7-((2-(trifluoromethyl)pyrrolidin-1-yl)methyl)benzofuran-3-yl)methoxy)phenyl)acetic acid] was under 1000 nM; that for `CC(C)n1nc(COc2ccccc2CC(=O)O)c2cc(-c3cccc(N)c3)ccc21` [Compound 321c, 2-(2-((5-(3-aminophenyl)-1-isopropyl-1H-indazol-3-yl)methoxy)phenyl)acetic acid] was 1000 to 10000 nM. For `NCc1cccc(-c2ccc3c(c2)c(COc2ccccc2CC(=O)O)nn3C2CCCCO2)c1` (stereo not shown) [Compound 80d, 2-(2-((5-(3-(aminomethyl)phenyl)-1-(tetrahydro-2H-pyran-2-yl)-1H-indazol-3-yl)methoxy)phenyl)acetic acid] the value was under 1000 nM; for `CCc1oc2ccc(-c3cccc(CN)c3)cc2c1COc1cc(C)ccc1CC(=O)O` [Compound 319c, 2-(2-((5-(3-(aminomethyl)phenyl)-2-ethylbenzofuran-3-yl)methoxy)-4-methylphenyl)acetic acid], under 1000 nM. As for `NCc1cccc(-c2ccc3c(c2)c(COc2ccccc2CC(=O)O)nn3C2CCCC2)c1` [Compound 292c, 2-(2-((5-(3-(aminomethyl)phenyl)-1-cyclopentyl-1H-indazol-3-yl)methoxy)phenyl)acetic acid], the IC50 was under 1000 nM. The value for `COc1ccc(CC(=O)O)c(OCc2coc3c(NCC4CC4)cc(-c4cccc(CN)c4)cc23)c1` [Compound 276e, 2-(2-((5-(3-(aminomethyl)phenyl)-7-((cyclopropylmethyl)amino)benzofuran-3-yl)methoxy)-4-methoxyphenyl)acetic acid] was under 1000 nM; that for `CC(C)n1nc(COc2ccccc2CC(=O)O)c2cc(-c3ccc(N)cc3)ccc21` [Compound 322c, 2-(2-((5-(4-aminophenyl)-1-isopropyl-1H-indazol-3-yl)methoxy)phenyl)acetic acid] was over 10000 nM. For `NCc1cccc(-c2cc(-c3cccnc3)c3occ(COc4ccccc4CC(=O)O)c3c2)c1` [Compound 162c, 2-(2-((5-(3-(aminomethyl)phenyl)-7-(pyridin-3-yl)benzofuran-3-yl)methoxy)phenyl)acetic acid] the value was under 1000 nM; for `Cc1nn(C)c(C)c1-c1cc(-c2cccc(CN)c2)cc2c(COc3ccccc3CC(=O)O)coc12` [Compound 268c, 2-(2-((5-(3-(aminomethyl)phenyl)-7-(1,3,5-trimethyl-1H-pyrazol-4-yl)benzofuran-3-yl)methoxy)phenyl)acetic acid], under 1000 nM. Regarding `CC(C)n1nc(COc2ccccc2CC(=O)O)c2cc(-c3cccc(CN)c3)ccc21` [Compound 182e, 2-(2-((5-(3-(aminomethyl)phenyl)-1-isopropyl-1H-indazol-3-yl)methoxy)phenyl)acetic acid], the IC50 was under 1000 nM. `NCc1cccc(-c2ccc3occ(C(=O)Nc4ccccc4CC(=O)O)c3c2)c1` [Compound 10c, 2-(2-(5-(3-(aminomethyl)phenyl)benzofuran-3-carboxamido)phenyl)acetic acid]: the IC50 was under 1000 nM. The value for `NCc1cccc(-c2cc(C(F)F)c3occ(COc4ccccc4CC(=O)O)c3c2)c1` [Compound 262e, 2-(2-((5-(3-(aminomethyl)phenyl)-7-(difluoromethyl)benzofuran-3-yl)methoxy)phenyl)acetic acid] was under 1000 nM.

As for `COCCNc1cc(-c2cccc(CN)c2)cc2c(COc3ccccc3CC(=O)O)coc12` [Compound 296d, 2-(2-((5-(3-(aminomethyl)phenyl)-7-((2-methoxyethyl)amino)benzofuran-3-yl)methoxy)phenyl)acetic acid], the 50% inhibitory concentration (IC50) was under 1000 nM.

With `Cc1ccc(CC(=O)O)c(OCc2nn(C)c3ccc(-c4cccc(CN)c4)cc23)c1` [Compound 206c, 2-(2-((5-(3-(aminomethyl)phenyl)-1-methyl-1H-indazol-3-yl)methoxy)-4-methylphenyl)acetic acid], the IC50 is under 1000 nM. For `NCc1cccc(-c2cc(Cl)c3occ(COc4ccccc4CC(=O)O)c3c2)c1` [Compound 127f, 2-(2-((5-(3-(aminomethyl)phenyl)-7-chlorobenzofuran-3-yl)methoxy)phenyl)acetic acid] the value was under 1000 nM; for `CC(C)(C)OC(=O)Nc1cccc(CC(=O)O)c1OCc1coc2ccc(-c3cccc(CN)c3)cc12` [Compound 91a, 2-(2-((5-(3-(aminomethyl)phenyl)benzofuran-3-yl)methoxy)-3-((tert-butoxycarbonyl)amino)phenyl)acetic acid], under 1000 nM. `CC(C)(C)c1oc2ccc(-c3cccc(CN)c3)cc2c1COc1ccccc1CC(=O)O` [Compound 171i, 2-(2-((5-(3-(aminomethyl)phenyl)-2-(tert-butyl)benzofuran-3-yl)methoxy)phenyl)acetic acid]: the IC50 is under 1000 nM. The value for `N[C@H](CO)c1cccc(-c2ccc3occ(COc4ccccc4CC(=O)O)c3c2)c1` [Compound 51c, (S)-2-(2-((5-(3-(1-amino-2-hydroxyethyl)phenyl)benzofuran-3-yl)methoxy)phenyl)acetic acid] was under 1000 nM; that for `NCc1cccc(-c2ccc3oc(C(F)F)c(COc4ccccc4CC(=O)O)c3c2)c1` [Compound 139c, 2-(2-((5-(3-(aminomethyl)phenyl)-2-(difluoromethyl)benzofuran-3-yl)methoxy)phenyl)acetic acid] was under 1000 nM. For `NCc1cccc(-c2ccc3oc(F)c(COc4ccccc4CC(=O)O)c3c2)c1` [Compound 204c, 2-(2-((5-(3-(aminomethyl)phenyl)-2-fluorobenzofuran-3-yl)methoxy)phenyl)acetic acid] the value was under 1000 nM. For `COc1ccc(CC(=O)O)c(OCc2coc3c(NCC(C)C)cc(-c4cccc(CN)c4)cc23)c1` [Compound 279c, 2-(2-((5-(3-(aminomethyl)phenyl)-7-(isobutylamino)benzofuran-3-yl)methoxy)-4-methoxyphenyl)acetic acid] the value was under 1000 nM. For `COc1ccc(CC(=O)O)c(OCc2nn(C(C)C)c3ccc(-c4cccc(CN)c4)cc23)c1` [Compound 213c, 2-(2-((5-(3-(aminomethyl)phenyl)-1-isopropyl-1H-indazol-3-yl)methoxy)-4-methoxyphenyl)acetic acid], the IC50 is under 1000 nM.
